From BindingDB's records for doi:10.1021/jm050519b (Oxagen, 2005) come the findings set out here.

The assay can be described thus: Concentration required to inhibit PGD-2 induced change in the shape of human eosinophils expressing CRTH2.

Consider `Cc1c(CC(=O)O)c2cc(F)ccc2n1S(=O)(=O)c1ccc(Cl)cc1` [[1-(4-Chloro-benzenesulfonyl)-5-fluoro-2-methyl-1H-indol-3-yl]-acetic acid], for which inhibition was half-maximal at 908 nM (IC50).

`Cc1c(CC(=O)O)c2cc(F)ccc2n1S(=O)(=O)c1ccc(S(C)(=O)=O)cc1` [[5-Fluoro-1-(4-methanesulfonyl-benzenesulfonyl)-2-methyl-1H-indol-3-yl]-acetic acid]: the IC50 (commonly the point on the concentration scale where inhibition reaches its midpoint) stood at 74 nM.
